{
  "source": "patent US10959984B2",
  "about": "“Methods for treating cancer with RORγ inhibitors” (THE REGENTS OF THE UNIVERSITY OF CALIFORNIA, priority 2015, dated 2021)",
  "key": {"[1]": {"tested_on": "AR", "experiment": "ARE reporter gene assay (5xARE-tk-luc) in 22Rv1 cells", "type": "cell-based, human", "protocol": "Transient transfection and reporter gene assays were performed as previously described^49 with the following modifications. ARE reporter gene assays were performed by transfecting 22Rv1 cells with 5×ARE-tk-luc, pcDNA3.1-hAR and pCMV-β-gal for normalization. For transfection with constructs omitted for specific gene expression, corresponding empty vectors were used to ensure equal amount of total DNA used. Briefly, 22Rv1 cells seeded in 96-well plates in hormone-deprived medium supplemented with 10% cds-FBS (Hyclone) were transfected with lipofectamine 2000 (Life technology, Carlsbad, Calif., USA) and the indicated plasmid DNA. Cells were then treated at 12 hours after transfection with 3 nm R1881, indicated concentrations of RORγ antagonists or ENZ for another 24 hours before harvested for β-gal and luciferase assays. For RORE reporter gene assays, 4×AR-RORE-tk-luc was constructed by inserting four copies of the newly identified AR-RORE TTCTGGGTCA (SEQ ID NO: 1) into tk-luciferase reporter vector. AR-RORE mutant form (AR-RORE mut) contains sequences mutated from TTCTGGGTCA (SEQ ID NO: 1) to TTCTGAACGA (SEQ ID NO: 2). […] The luciferase and β-galactosidase were then analyzed with a Luciferase Assay Substrate (Promega) and Luminescent β-galactosidase Detection Kit II (Clontech). […]"}, "[2]": {"settings": "mouse, in vivo", "protocol": "(§1) Four-week-old male SCID C.B17 mice (for C4-2B and VCaP) or BALB/c nu/nu athymic mice (for 22Rv11 and PC-3) were purchased from Harlan Inc. For establishing tumors, 2×10^6 cells were suspended in total of 100 μL PBS/Matrigel (1:1) and implanted subcutaneously into the dorsal flank on both sides of the mice. Animal group size of six or more was estimated to have a high statistic power, based on power calculation (http://www.biomath.info/power/) and previous studies involving the same xenograft models^34,68. When the tumor volume was approximately 80 mm^3, the mice were randomized and then treated intraperitoneally (i.p.) with 100 μl of either vehicle or RORγ antagonists SR2211, XY011/8k (in a formulation of 15% Cremophor EL, Calbiochem, 82.5% PBS, and 2.5% DMSO) for five times per week. Tumor growth was monitored by calipers with volume calculated using the equation: (π/6 (length×width2)). Body weight during the course of the study was also monitored. At the end of the studies mice were killed and tumors were dissected and weighed. Additionally, prostate, seminal vesicle, testis, kidney, heart, lung, liver, epididymal fat pad and spleen were harvested and weighed. To assess the effect of combining RORγ antagonists and ENZ on the growth of castrated-resistant VCaP xenografts (CRPC-VCaP), first, SCID C.B17 mice were injected with VCaP cells as above to establish the tumors. […]"}, "[3]": {"tested_on": "22Rv1 xenografts", "experiment": "22Rv1 xenograft tumor growth", "type": "in vivo, mice", "settings": "nude mice; SR2211 5 mg/kg i.p., 8k/E11 10 and 20 mg/kg i.p., five times per week (FIG. 3A)", "protocol": "Four-week-old male SCID C.B17 mice (for C4-2B and VCaP) or BALB/c nu/nu athymic mice (for 22Rv11 and PC-3) were purchased from Harlan Inc. For establishing tumors, 2×10^6 cells were suspended in total of 100 μL PBS/Matrigel (1:1) and implanted subcutaneously into the dorsal flank on both sides of the mice. Animal group size of six or more was estimated to have a high statistic power, based on power calculation (http://www.biomath.info/power/) and previous studies involving the same xenograft models^34,68. When the tumor volume was approximately 80 mm^3, the mice were randomized and then treated intraperitoneally (i.p.) with 100 μl of either vehicle or RORγ antagonists SR2211, XY011/8k (in a formulation of 15% Cremophor EL, Calbiochem, 82.5% PBS, and 2.5% DMSO) for five times per week. Tumor growth was monitored by calipers with volume calculated using the equation: (π/6 (length×width2)). Body weight during the course of the study was also monitored. At the end of the studies mice were killed and tumors were dissected and weighed. Additionally, prostate, seminal vesicle, testis, kidney, heart, lung, liver, epididymal fat pad and spleen were harvested and weighed. To assess the effect of combining RORγ antagonists and ENZ on the growth of castrated-resistant VCaP xenografts (CRPC-VCaP), first, SCID C.B17 mice were injected with VCaP cells as above to establish the tumors. Then, mice bearing tumors of approximately 180 mm^3 were surgically castrated. They were then observed for tumor regression. Once tumors grew back to the pre-castration size, mice were randomized and treated with vehicle, 5 mg kg^−1 SR2211, 10 mg […] ENZ or a combination of 5 mg kg^−1 SR2211 and 10 mg kg^−1 ENZ. ENZ was given by oral gavage as previously described^68 and SR2211 was administered i.p as above. Mice were excluded from the study if bearing no tumor or tumor with size twice larger or smaller than the mean, at the time of randomization."}, "[4]": {"tested_on": "CRPC-VCaP xenografts", "experiment": "Castration-resistant VCaP (CRPC-VCaP) xenograft tumor growth", "type": "in vivo", "settings": "castrated mice, ENZ alone, 10 mg/kg oral", "protocol": "as §1"}},
  "data": [
    {"smiles": "CNC(=O)c1ccc(N2C(=S)N(c3ccc(C#N)c(C(F)(F)F)c3)C(=O)C2(C)C)cc1F", "note": "[ENZ, enzalutamide]", "values": [
      {"measurement": "response of multimerized ARE-driven reporter", "setting": "[1]", "value": "repressed"},
      {"measurement": "tolerability based on weight of whole body and vital organs, and general behaviors", "setting": "[2]", "value": "well tolerated"},
      {"measurement": "growth of xenograft tumors", "setting": "[3]", "value": "did not show any significant inhibitory effect"},
      {"measurement": "CRPC tumor growth", "setting": "[4]", "value": "only marginally effective"}
    ]}
  ]
}
